In US7271165B2, “Rifamycin analogs and uses thereof” (priority 2003, dated 2007):
In brackets after ≈: the same amount, converted by molar mass.

Experiments:
S. aureus = test: MIC assay, S. aureus; assay type: cell-based, Staphylococcus aureus
E coli = test: MIC assay, E coli; assay type: cell-based
S. pneumo. = test: MIC assay, S. pneumo.; assay type: cell-based, Streptococcus pneumoniae
E. faecalis = test: MIC assay, E. faecalis; assay type: cell-based, Enterococcus faecalis
H. flu = assay type: cell-based, H. influenza; settings: H. flu

| Structure (SMILES) | MIC (μg/mL) S. aureus (S. aureus) | MIC (μg/mL) E coli (E coli) | MIC (μg/mL) S. pneumo. (S. pneumo.) | MIC (μg/mL) E. faecalis (E. faecalis) | MIC (μg/mL) H. flu (H. flu) |
| --- | --- | --- | --- | --- | --- |
| CO[C@H]1/C=C/O[C@@]2(C)Oc3c(C)c(O)c4c(=O)c(c5oc6cc(N7CCC(N8CCOCC8)CC7)cc(O)c6nc-5c4c3C2=O)NC(=O)/C(C)=C\C=C\[C@H](C)[C@H](O)[C@@H](C)[C@@H](O)[C@@H](C)[C@H](O)[C@@H]1C [Compound 11, 25-O-deacetyl-3′-hydroxy-5′-(4-morpholinyl-1-piperidinyl)benzoxazinorifamycin] | 0.004 µg/mL (≈ 0.00431 µM) | 4 µg/mL (≈ 4.31 µM) | 0.00012 µg/mL (≈ 0.000129 µM) | 0.25 µg/mL (≈ 0.27 µM) | 1 µg/mL (≈ 1.08 µM) |
| CO[C@H]1/C=C/O[C@@]2(C)Oc3c(C)c(O)c4c(=O)c(c5oc6cc(N7C[C@H]8CCCN[C@H]8C7)cc(O)c6nc-5c4c3C2=O)NC(=O)/C(C)=C\C=C\[C@H](C)[C@H](O)[C@@H](C)[C@@H](O)[C@@H](C)[C@H](OC(C)=O)[C@@H]1C [Compound 12, 3′-hydroxy-5′-[(4aR,7aR)-octahydro-6H-pyrrolo[3,4-b]pyridin-6-yl]benzoxazinorifamycin] | 0.004 µg/mL (≈ 0.00432 µM) | 8 µg/mL (≈ 8.65 µM) | 0.00025 µg/mL (≈ 0.00027 µM) | 0.12 µg/mL (≈ 0.13 µM) | 0.25 µg/mL (≈ 0.27 µM) |
| CO[C@H]1/C=C/O[C@@]2(C)Oc3c(C)c(O)c4c(=O)c(c5oc6cc(N7CCC(NC(=O)OCC(C)C)CC7)cc(O)c6nc-5c4c3C2=O)NC(=O)/C(C)=C\C=C\[C@H](C)[C@H](O)[C@@H](C)[C@@H](O)[C@@H](C)[C@H](OC(C)=O)[C@@H]1C [Compound 13] | 0.008 µg/mL (≈ 0.00801 µM) | 4 µg/mL (≈ 4 µM) | 0.00012 µg/mL (≈ 0.00012 µM) | 0.5 µg/mL (≈ 0.5 µM) | 2 µg/mL (≈ 2 µM) |
| CO[C@H]1/C=C/O[C@@]2(C)Oc3c(C)c(O)c4c(=O)c(c5oc6cc(N7C[C@H]8CCCN[C@H]8C7)cc(O)c6nc-5c4c3C2=O)NC(=O)/C(C)=C\C=C\[C@H](C)[C@H](O)[C@@H](C)[C@@H](O)[C@@H](C)[C@H](O)[C@@H]1C [Compound 15, 25-O-deacetyl-3′-hydroxy-5′-[(4aR,7aR)-octahydro-6H-pyrrolo[3,4-b]pyridin-6-yl]benzoxazinorifamycin] | 0.03 µg/mL (≈ 0.034 µM) | >8 µg/mL | 0.002 µg/mL (≈ 0.00226 µM) | 0.25 µg/mL (≈ 0.283 µM) | 1 µg/mL (≈ 1.13 µM) |
| CO[C@H]1/C=C/O[C@@]2(C)Oc3c(C)c(O)c4c(=O)c(c5oc6cc(N7CC8CCC(C7)N8)cc(O)c6nc-5c4c3C2=O)NC(=O)/C(C)=C\C=C\[C@H](C)[C@H](O)[C@@H](C)[C@@H](O)[C@@H](C)[C@H](O)[C@@H]1C [Compound 16, 25-O-deacetyl-3′-hydroxy-5′-(3,8-diazabicyclo[3.2.1]octan-3-yl)benzoxazinorifamycin] | 0.015 µg/mL (≈ 0.0173 µM) | 4 µg/mL (≈ 4.6 µM) | 0.001 µg/mL (≈ 0.00115 µM) | 0.12 µg/mL (≈ 0.138 µM) | 0.25 µg/mL (≈ 0.288 µM) |
| CO[C@H]1/C=C/O[C@@]2(C)Oc3c(C)c(O)c4c(=O)c(c5oc6cc(N7CCC(N(C)C)CC7)cc(O)c6nc-5c4c3C2=O)NC(=O)/C(C)=C\C=C\[C@H](C)[C@H](O)[C@@H](C)[C@@H](O)[C@@H](C)[C@H](OC(C)=O)[C@@H]1C [Compound 17, 3′-hydroxy-5′-(4-N,N-dimethylamino-1-piperidinyl)benzoxazinorifamycin] | 0.008 µg/mL (≈ 0.00863 µM) | 8 µg/mL (≈ 8.63 µM) | 0.00012 µg/mL (≈ 0.000129 µM) | 1 µg/mL (≈ 1.08 µM) | 1 µg/mL (≈ 1.08 µM) |
| CO[C@H]1/C=C/O[C@@]2(C)Oc3c(C)c(O)c4c(=O)c(c5oc6cc(N7CCC(N(C)C)CC7)cc(O)c6nc-5c4c3C2=O)NC(=O)/C(C)=C\C=C\[C@H](C)[C@H](O)[C@@H](C)[C@@H](O)[C@@H](C)[C@H](O)[C@@H]1C [Compound 18, 25-O-deacetyl-3′-hydroxy-5′-(4-N,N dimethylamino-1-piperidinyl)benzoxazinorifamycin] | 0.004 µg/mL (≈ 0.00452 µM) | 4 µg/mL (≈ 4.52 µM) | 0.00012 µg/mL (≈ 0.000136 µM) | 0.12 µg/mL (≈ 0.136 µM) | 0.5 µg/mL (≈ 0.565 µM) |
| CCOC(=O)NC1CCN(c2ccc3nc4c5c6c7c(C)c(O)c5c(=O)c(c-4n(C)c3c2)NC(=O)/C(C)=C\C=C\[C@H](C)[C@H](O)[C@@H](C)[C@@H](O)[C@@H](C)[C@H](OC(C)=O)[C@H](C)[C@@H](OC)/C=C/O[C@@](C)(O7)C6=O)CC1 [Compound 19] | 0.004 µg/mL (≈ 0.00413 µM) | 4 µg/mL (≈ 4.13 µM) | 0.001 µg/mL (≈ 0.00103 µM) | 0.06 µg/mL (≈ 0.062 µM) | 0.25 µg/mL (≈ 0.258 µM) |
| COC1C=COC2(C)Oc3c(C)c(O)c4c(=O)c(c5oc6cc(N7CC8C(N)C8C7)cc(O)c6nc-5c4c3C2=O)NC(=O)C(C)=CC=CC(C)C(O)C(C)C(O)C(C)C(O)C1C [Compound 20, 25-O-deacetyl-3′-hydroxy-5′-[6-amino-(1R,5S)-3-azabicyclo[3.1.0]hex-3-yl]benzoxazinorifamycin] | 2 µg/mL (≈ 2.34 µM) | >8 µg/mL | 1 µg/mL (≈ 1.17 µM) | >8 µg/mL | >8 µg/mL |
| CCOC(=O)NC1C2CN(c3cc(O)c4nc5c6c7c8c(C)c(O)c6c(=O)c(c-5oc4c3)NC(=O)C(C)=CC=CC(C)C(O)C(C)C(O)C(C)C(OC(C)=O)C(C)C(OC)C=COC(C)(O8)C7=O)CC21 (centres unmarked) [Compound 21] | 0.004 µg/mL (≈ 0.00413 µM) | 4 µg/mL (≈ 4.13 µM) | 0.001 µg/mL (≈ 0.00103 µM) | 0.12 µg/mL (≈ 0.124 µM) | 0.5 µg/mL (≈ 0.516 µM) |
| CO[C@H]1/C=C/O[C@@]2(C)Oc3c(C)c(O)c4c(=O)c(c5oc6cc(N7CCC(NC(=O)OC(C)C)CC7)cc(O)c6nc-5c4c3C2=O)NC(=O)/C(C)=C\C=C\[C@H](C)[C@H](O)[C@@H](C)[C@@H](O)[C@@H](C)[C@H](OC(C)=O)[C@@H]1C [Compound 22] | 0.015 µg/mL (≈ 0.0152 µM) | >8 µg/mL | 0.00025 µg/mL (≈ 0.000254 µM) | 4 µg/mL (≈ 4.06 µM) | 2 µg/mL (≈ 2.03 µM) |
| CO[C@H]1/C=C/O[C@@]2(C)Oc3c(C)c(O)c4c(=O)c(c5oc6cc(N7CCC(NS(=O)(=O)C(F)(F)F)CC7)cc(O)c6nc-5c4c3C2=O)NC(=O)/C(C)=C\C=C\[C@H](C)[C@H](O)[C@@H](C)[C@@H](O)[C@@H](C)[C@H](OC(C)=O)[C@@H]1C [Compound 23] | 0.015 µg/mL (≈ 0.0145 µM) | >8 µg/mL | 0.00012 µg/mL (≈ 0.000116 µM) | 4 µg/mL (≈ 3.88 µM) | 2 µg/mL (≈ 1.94 µM) |
| CCCC(=O)NC1CCN(c2cc(O)c3nc4c5c6c7c(C)c(O)c5c(=O)c(c-4oc3c2)NC(=O)/C(C)=C\C=C\[C@H](C)[C@H](O)[C@@H](C)[C@@H](O)[C@@H](C)[C@H](OC(C)=O)[C@H](C)[C@@H](OC)/C=C/O[C@@](C)(O7)C6=O)CC1 [Compound 24, 3′-hydroxy-5′-[4-butanamide-1-piperidinyl]benzoxazinorifamycin] | 0.015 µg/mL (≈ 0.0155 µM) | >8 µg/mL | 0.001 µg/mL (≈ 0.00103 µM) | 2 µg/mL (≈ 2.06 µM) | 2 µg/mL (≈ 2.06 µM) |
| CO[C@H]1/C=C/O[C@@]2(C)Oc3c(C)c(O)c4c(=O)c(c5oc6cc(N7CCC(NS(C)(=O)=O)CC7)cc(O)c6nc-5c4c3C2=O)NC(=O)/C(C)=C\C=C\[C@H](C)[C@H](O)[C@@H](C)[C@@H](O)[C@@H](C)[C@H](OC(C)=O)[C@@H]1C [Compound 25] | 0.008 µg/mL (≈ 0.00819 µM) | >8 µg/mL | 0.001 µg/mL (≈ 0.00102 µM) | 2 µg/mL (≈ 2.05 µM) | 2 µg/mL (≈ 2.05 µM) |
| CCCNC(=O)NC1CCN(c2cc(O)c3nc4c5c6c7c(C)c(O)c5c(=O)c(c-4oc3c2)NC(=O)/C(C)=C\C=C\[C@H](C)[C@H](O)[C@@H](C)[C@@H](O)[C@@H](C)[C@H](O)[C@H](C)[C@@H](OC)/C=C/O[C@@](C)(O7)C6=O)CC1 [Compound 26, 25-O-deacetyl-3′-hydroxy-5′-[4-propyluryl-1-piperidinyl]benzoxazinorifamycin] | 0.008 µg/mL (≈ 0.00849 µM) | >8 µg/mL | 0.00012 µg/mL (≈ 0.000127 µM) | 2 µg/mL (≈ 2.12 µM) | 1 µg/mL (≈ 1.06 µM) |
| CO[C@H]1/C=C/O[C@@]2(C)Oc3c(C)c(O)c4c(=O)c(c5oc6cc(N7CCC(NS(C)(=O)=O)CC7)cc(O)c6nc-5c4c3C2=O)NC(=O)/C(C)=C\C=C\[C@H](C)[C@H](O)[C@@H](C)[C@@H](O)[C@@H](C)[C@H](O)[C@@H]1C [Compound 27] | 0.015 µg/mL (≈ 0.016 µM) | >8 µg/mL | 0.001 µg/mL (≈ 0.00107 µM) | 1 µg/mL (≈ 1.07 µM) | 0.12 µg/mL (≈ 0.128 µM) |
